{
  "source": "paper PMC6934184",
  "about": "“Selective DNA-PKcs inhibition extends the therapeutic index of localized radiotherapy and chemotherapy” (The Journal of Clinical Investigation, 2019)",
  "target": "T1, ALK C1156Y (Homo sapiens, UniProt Q9UM73, C1156Y)",
  "T1 construct": "purchased Thermo Fisher Scientific (Life Technologies) SelectScreen",
  "T1 sequence (Q9UM73 19-1620 C1156Y)": "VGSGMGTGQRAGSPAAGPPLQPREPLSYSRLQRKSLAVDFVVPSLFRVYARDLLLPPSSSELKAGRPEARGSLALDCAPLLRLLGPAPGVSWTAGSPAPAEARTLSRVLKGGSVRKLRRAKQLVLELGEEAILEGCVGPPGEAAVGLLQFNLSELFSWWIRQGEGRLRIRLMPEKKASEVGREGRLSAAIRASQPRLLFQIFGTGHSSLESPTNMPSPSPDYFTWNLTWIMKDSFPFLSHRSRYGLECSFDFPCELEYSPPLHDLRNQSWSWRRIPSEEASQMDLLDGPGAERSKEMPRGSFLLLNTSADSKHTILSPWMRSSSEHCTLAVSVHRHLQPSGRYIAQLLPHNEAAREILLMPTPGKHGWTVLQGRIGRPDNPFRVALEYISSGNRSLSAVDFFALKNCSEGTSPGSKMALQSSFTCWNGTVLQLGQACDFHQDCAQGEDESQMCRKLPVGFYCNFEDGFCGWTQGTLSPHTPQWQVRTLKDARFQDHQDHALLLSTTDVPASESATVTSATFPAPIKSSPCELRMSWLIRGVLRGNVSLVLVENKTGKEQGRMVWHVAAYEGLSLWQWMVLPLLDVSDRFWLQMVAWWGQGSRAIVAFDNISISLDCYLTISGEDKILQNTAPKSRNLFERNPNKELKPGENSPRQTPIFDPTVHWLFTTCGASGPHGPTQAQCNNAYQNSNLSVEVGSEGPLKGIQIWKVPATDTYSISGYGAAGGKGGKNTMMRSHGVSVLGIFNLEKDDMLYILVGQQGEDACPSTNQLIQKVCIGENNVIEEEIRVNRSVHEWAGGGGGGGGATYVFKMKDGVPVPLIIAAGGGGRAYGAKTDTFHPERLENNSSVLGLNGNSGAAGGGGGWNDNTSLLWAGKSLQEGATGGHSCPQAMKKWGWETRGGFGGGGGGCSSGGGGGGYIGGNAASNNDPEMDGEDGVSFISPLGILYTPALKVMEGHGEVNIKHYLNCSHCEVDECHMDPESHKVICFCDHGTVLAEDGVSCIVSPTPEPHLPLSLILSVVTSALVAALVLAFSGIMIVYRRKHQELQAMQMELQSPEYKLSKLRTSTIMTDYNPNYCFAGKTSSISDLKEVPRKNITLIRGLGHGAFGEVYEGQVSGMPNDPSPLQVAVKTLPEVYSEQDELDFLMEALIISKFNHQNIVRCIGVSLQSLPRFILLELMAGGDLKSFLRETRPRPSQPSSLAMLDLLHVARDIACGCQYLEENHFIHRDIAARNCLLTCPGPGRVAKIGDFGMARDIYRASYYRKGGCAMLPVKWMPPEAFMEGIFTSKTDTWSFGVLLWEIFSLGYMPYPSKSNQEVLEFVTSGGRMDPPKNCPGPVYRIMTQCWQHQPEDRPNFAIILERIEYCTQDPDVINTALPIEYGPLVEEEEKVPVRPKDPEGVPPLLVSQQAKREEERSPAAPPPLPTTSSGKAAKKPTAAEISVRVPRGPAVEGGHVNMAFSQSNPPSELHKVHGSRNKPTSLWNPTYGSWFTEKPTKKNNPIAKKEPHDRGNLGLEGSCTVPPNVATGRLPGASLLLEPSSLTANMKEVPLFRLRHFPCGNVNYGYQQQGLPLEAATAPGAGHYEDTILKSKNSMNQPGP",
  "experiment": "SelectScreen LanthaScreen",
  "type": "binding",
  "conditions": "read-out: % displacement",
  "method_in_brief": "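SelectScreen broad panel; activity (Z'LYTE, Adapta) plus binding formats. ATP: Km app for CSF1R Z'LYTE; 10 for CAMK1 Adapta. Readout = % per kinase.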",
  "data": [
    {"smiles": "CN(C(=O)CN1CCOCC1)c1ccc2sc3c(-c4cccc5c(=O)cc(N6CC7CCC(C6)O7)oc45)cccc3c2c1", "note": "[NU5455]", "values": [
      {"measurement": "inhibition at 1 µM", "result": 0.6, "unit": "%"}
    ]}
  ]
}
